According to the supplement of paper PMC10883282:
Where a name gives a salt, the structure may show the parent alone. ± gives the standard deviation of the averaged measurements.

System: RD-ES
Test: relative viability vs DMSO control (72 h) (fraction); higher = more viable cells
In short: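 Sarcoma cell lines went into 384-well plates at densities chosen to reach 80–90% confluence. After 24 h, each well received 2.5 µl of serially diluted compound, with source plates running from 10 mM to 0.0002 mM, and the plates were kept 72 h at 37 °C, 5% CO2, alongside 0.1% DMSO vehicle and a 5 µM positive control. Relative viability was derived from ATPLite readings as percent growth and averaged over up to triplicate wells. The data were then rescaled so that 1 stands for full and 0 for none.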

Row | Structure (SMILES) | relative viability (0.00017 µM) | relative viability (0.00051 µM) | relative viability (0.00152 µM) | relative viability (0.00457 µM) | relative viability (0.01372 µM) | relative viability (0.04115 µM) | relative viability (0.1235 µM) | relative viability (0.3704 µM) | relative viability (1.111 µM) | relative viability (3.333 µM) | relative viability (10 µM) | relative viability (2 pM) | relative viability (5 pM) | relative viability (15 pM) | relative viability (50 pM) | relative viability (0.00014 µM) | relative viability (0.00041 µM) | relative viability (0.0012 µM) | relative viability (0.0037 µM) | relative viability (0.011 µM) | relative viability (200 fM) | relative viability (600 fM)
1 | CCCS(=O)(=O)Nc1ccc(F)c(C(=O)c2c[nH]c3ncc(-c4ccc(Cl)cc4)cc23)c1F [Vemurafenib] | 0.978 ± 0.032 | 0.983 ± 0.024 | 0.975 ± 0.044 | 0.995 ± 0.051 | 0.982 ± 0.039 | 0.994 ± 0.05 | 0.99 ± 0.041 | 0.991 ± 0.047 | 0.984 ± 0.039 | 0.967 ± 0.042 | 0.7 ± 0.27 |  |  |  |  |  |  |  |  |  |  | 
2 | COCc1c(-c2cc3cc(C)cc(OC)c3s2)c2c(N)ncnn2c1CN1CCNC(=O)C1 [Rogaratinib] | 1.04 ± 0.027 | 0.997 ± 0.028 | 1.03 ± 0.012 | 1.02 ± 0.032 | 1.03 ± 0.013 | 1 ± 0.036 | 0.971 ± 0.043 | 0.958 ± 0.013 | 0.91 ± 0.029 | 0.774 ± 0.014 | 0.455 ± 0.0058 |  |  |  |  |  |  |  |  |  |  | 
3 | C=CC(=O)N1CCC([C@@H]2CCNc3c(C(N)=O)c(-c4ccc(Oc5ccccc5)cc4)nn32)CC1 [Zanubrutinib] | 0.953 ± 0.033 | 0.956 ± 0.013 | 0.978 ± 0.025 | 0.985 ± 0.025 | 0.978 ± 0.023 | 0.943 ± 0.044 | 0.921 ± 0.027 | 0.942 ± 0.046 | 0.887 ± 0.053 | 0.888 ± 0.07 | 0.904 ± 0.049 |  |  |  |  |  |  |  |  |  |  | 
4 | COc1cccc2c1C(=O)c1c(O)c3c(c(O)c1C2=O)C[C@@](O)(C(=O)CO)C[C@@H]3O[C@H]1C[C@H](N)[C@H](O)[C@H](C)O1 [Doxorubicin Hydrochloride] | 1.01 ± 0.032 | 1.03 ± 0.037 | 1.02 ± 0.014 | 1 ± 0.025 | 0.749 ± 0.0091 | 0.374 ± 0.014 | 0.155 ± 0.011 | 0.036 ± 0.0064 | 0.0178 ± 0.0034 | 0.00453 ± 5.8e-05 | 0.0075 ± 0.00089 |  |  |  |  |  |  |  |  |  |  | 
5 | CC(C)NC(=O)C1CCC(n2c(NC(=O)c3ccc(F)cc3)nc3ccc(CN4CCC(C(C)(C)O)CC4)cc32)CC1 (stereo not drawn) [Belizatinib] | 1.01 ± 0.025 | 1.02 ± 0.021 | 0.997 ± 0.021 | 1.02 ± 0.013 | 1.03 ± 0.021 | 0.995 ± 0.021 | 0.907 ± 0.01 | 0.648 ± 0.02 | 0.455 ± 0.014 | 0.395 ± 0.016 | 0.261 ± 0.009 |  |  |  |  |  |  |  |  |  |  | 
6 | COc1cc2/c(=N/c3ccc(Br)cc3F)nc[nH]c2cc1OCC1CCN(C)CC1 [Vandetanib] | 0.944 ± 0.034 | 0.949 ± 0.031 | 0.957 ± 0.01 | 0.939 ± 0.047 | 0.927 ± 0.025 | 0.94 ± 0.041 | 0.944 ± 0.053 | 0.922 ± 0.056 | 0.804 ± 0.054 | 0.648 ± 0.029 | 0.0224 ± 0.01 |  |  |  |  |  |  |  |  |  |  | 
7 | C[C@@H]1CCN(C(=O)CC#N)C[C@@H]1N(C)c1ncnc2[nH]ccc12 [Tofacitinib] | 0.942 ± 0.038 | 0.962 ± 0.035 | 0.952 ± 0.053 | 0.966 ± 0.045 | 0.961 ± 0.024 | 0.962 ± 0.06 | 0.949 ± 0.047 | 0.965 ± 0.034 | 0.955 ± 0.045 | 0.988 ± 0.051 | 1.02 ± 0.044 |  |  |  |  |  |  |  |  |  |  | 
8 | Cn1cnc2c(F)c(Nc3ccc(Br)cc3F)c(C(=O)NOCCO)cc21 [Binimetinib] | 0.9413 ± 0.0039 | 0.9487 ± 0.0073 | 0.976 ± 0.024 | 0.969 ± 0.026 | 0.942 ± 0.025 | 0.938 ± 0.053 | 0.962 ± 0.043 | 0.919 ± 0.061 | 0.883 ± 0.026 | 0.925 ± 0.034 | 0.879 ± 0.042 |  |  |  |  |  |  |  |  |  |  | 
9 | Cc1nc(-c2cn3c(n2)-c2ccc(-c4cnn(C(C)(C)C(N)=O)c4)cc2OCC3)n(C(C)C)n1 [Taselisib] | 0.992 ± 0.028 | 0.983 ± 0.033 | 0.962 ± 0.026 | 0.949 ± 0.019 | 0.851 ± 0.044 | 0.694 ± 0.01 | 0.556 ± 0.0063 | 0.472 ± 0.0073 | 0.426 ± 0.016 | 0.347 ± 0.0097 | 0.224 ± 0.0038 |  |  |  |  |  |  |  |  |  |  | 
10 | Nc1cc(C(F)(F)F)c(-c2cc(N3CCOCC3)nc(N3CCOCC3)n2)cn1 [Buparlisib] | 0.97 ± 0.037 | 0.956 ± 0.025 | 0.946 ± 0.026 | 0.949 ± 0.021 | 0.935 ± 0.013 | 0.922 ± 0.01 | 0.864 ± 0.0088 | 0.717 ± 0.021 | 0.341 ± 0.0073 | 0.102 ± 0.0037 | 0.0722 ± 0.0025 |  |  |  |  |  |  |  |  |  |  | 
11 | Cc1cnc(Nc2ccc(OCCN3CCCC3)cc2)nc1Nc1cccc(S(=O)(=O)NC(C)(C)C)c1 [Fedratinib] | 1.01 ± 0.013 | 1 ± 0.036 | 1.02 ± 0.032 | 1.01 ± 0.027 | 0.98 ± 0.034 | 0.972 ± 0.024 | 0.904 ± 0.026 | 0.7114 ± 0.0066 | 0.145 ± 0.0063 | 0.00883 ± 0.0011 | 0.00587 ± 0.0018 |  |  |  |  |  |  |  |  |  |  | 
12 | COc1cc2c(Oc3ccc4[nH]c(C)cc4c3F)ncnc2cc1OCCCN1CCCC1 [Cediranib] | 0.96 ± 0.026 | 0.985 ± 0.038 | 0.95 ± 0.023 | 0.958 ± 0.018 | 0.992 ± 0.023 | 0.961 ± 0.017 | 0.962 ± 0.01 | 0.9773 ± 0.0095 | 0.887 ± 0.013 | 0.971 ± 0.025 | 0.943 ± 0.022 |  |  |  |  |  |  |  |  |  |  | 
13 | CC(=O)Nc1cccc(-n2c(=O)n(C3CC3)c(=O)c3c(Nc4ccc(I)cc4F)n(C)c(=O)c(C)c32)c1 [Trametinib] | 0.979 ± 0.039 | 0.973 ± 0.036 | 0.969 ± 0.044 | 0.957 ± 0.022 | 0.973 ± 0.049 | 0.959 ± 0.037 | 0.946 ± 0.019 | 0.975 ± 0.031 | 0.978 ± 0.06 | 0.957 ± 0.052 | 0.941 ± 0.062 |  |  |  |  |  |  |  |  |  |  | 
14 | CC(C)N1CCN(Cc2cnc(-c3cc(-c4cccc5[nH]ccc45)cc4[nH]ncc34)o2)CC1 [Nemiralisib] | 1 ± 0.036 | 1 ± 0.016 | 0.973 ± 0.028 | 0.978 ± 0.023 | 0.987 ± 0.03 | 1.02 ± 0.042 | 0.9842 ± 0.004 | 1.01 ± 0.041 | 0.984 ± 0.036 | 0.854 ± 0.016 | 0.223 ± 0.033 |  |  |  |  |  |  |  |  |  |  | 
15 | Cc1cc(Nc2ncnc3ccc(NC4=NC(C)(C)CO4)cc23)ccc1Oc1ccn2ncnc2c1 [Tucatinib] | 0.989 ± 0.03 | 0.999 ± 0.035 | 1 ± 0.027 | 1 ± 0.035 | 0.95 ± 0.055 | 0.996 ± 0.027 | 0.991 ± 0.014 | 0.974 ± 0.02 | 0.985 ± 0.037 | 0.983 ± 0.031 | 0.9422 ± 0.0042 |  |  |  |  |  |  |  |  |  |  | 
16 | COc1cc2c(cc1O)CCN[C@]21CS[C@@H]2c3c(OC(C)=O)c(C)c4c(c3[C@H](COC1=O)N1[C@@H]2[C@H]2c3c(cc(C)c(OC)c3O)C[C@@H]([C@@H]1O)N2C)OCO4 [Trabectedin] |  |  |  |  |  |  |  |  |  |  |  | 0.979 ± 0.032 | 0.954 ± 0.052 | 0.833 ± 0.06 | 0.581 ± 0.008 | 0.0757 ± 0.0065 | 0.0099 ± 0.002 | 0.00377 ± 0.00023 | 0.0027 ± 0.00085 | 0.00663 ± 0.00032 | 0.9532 ± 0.0081 | 0.985 ± 0.056
17 | C[C@@H]1COCCN1c1cc(-c2ccnn2C)c2ccnc(-c3ccn[nH]3)c2n1 | 0.987 ± 0.036 | 1.02 ± 0.044 | 1.04 ± 0.047 | 1.02 ± 0.04 | 1.01 ± 0.034 | 0.957 ± 0.0036 | 0.686 ± 0.026 | 0.279 ± 0.015 | 0.113 ± 0.096 | 0.155 ± 0.019 | 0.156 ± 0.0075 |  |  |  |  |  |  |  |  |  |  | 
18 | Cc1cc(C)c(/C=C2\C(=O)Nc3ccccc32)[nH]1 [Semaxanib] | 0.962 ± 0.022 | 0.973 ± 0.034 | 0.961 ± 0.052 | 0.994 ± 0.02 | 0.969 ± 0.053 | 0.976 ± 0.013 | 0.93 ± 0.024 | 0.965 ± 0.026 | 0.915 ± 0.064 | 0.871 ± 0.033 | 0.792 ± 0.012 |  |  |  |  |  |  |  |  |  |  | 
